In patent publication US20240018138A1, “PYRIDO[4,3-b]INDOLE DERIVATIVES AND THEIR USE AS PHARMACEUTICALS” (Ventus Therapeutics U.S., Inc., priority 2020, published 2024):

What follows are compounds tested against h-cGAS (Homo sapiens (Human), UniProt Q8N884) (assay: h-cGAS Kinase-Glo assay). Conditions: Kinase-Glo Max; 40 nM h-cGAS, 100 uM ATP, 100 uM GTP, 25 nM dsDNA, 2 h incubation.
Assay type: biochemical

Sequence of h-cGAS (Q8N884 whole entry): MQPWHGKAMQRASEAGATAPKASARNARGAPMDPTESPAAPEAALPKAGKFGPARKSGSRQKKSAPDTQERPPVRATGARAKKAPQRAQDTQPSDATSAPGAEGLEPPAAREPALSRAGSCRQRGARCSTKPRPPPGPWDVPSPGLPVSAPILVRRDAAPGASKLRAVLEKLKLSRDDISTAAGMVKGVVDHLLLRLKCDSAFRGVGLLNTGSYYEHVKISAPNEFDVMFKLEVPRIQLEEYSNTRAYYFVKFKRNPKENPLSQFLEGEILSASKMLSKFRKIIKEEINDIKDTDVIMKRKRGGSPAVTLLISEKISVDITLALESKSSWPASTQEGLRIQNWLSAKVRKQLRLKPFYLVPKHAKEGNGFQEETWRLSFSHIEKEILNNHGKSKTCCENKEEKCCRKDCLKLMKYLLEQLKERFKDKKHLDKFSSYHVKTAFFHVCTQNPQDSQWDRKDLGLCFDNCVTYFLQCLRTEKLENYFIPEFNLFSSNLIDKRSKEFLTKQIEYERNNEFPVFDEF

Structure (SMILES) | IC50 [nM]
COCC(=O)N1[C@H](C)Cc2[nH]c3c(Cl)c(Cl)ccc3c2[C@@H]1C [Compound 104] | 51.7
COCC(=O)N1CCc2[nH]c3c(Cl)c(Cl)cc(-c4ccn(C)n4)c3c2[C@H]1C [Compound 105] | 3820
COCC(=O)N1CCc2[nH]c3c(Cl)c(Cl)cc(-c4ccn(C)n4)c3c2[C@@H]1C [Compound 106] | 4550
COCC(=O)N1CCc2[nH]c3c(Cl)c(F)ccc3c2[C@H]1C [Compound 107] | 51.8
COCC(=O)N1[C@@H](C)Cc2[nH]c3c(Cl)c(Cl)ccc3c2[C@@H]1C [Compound 108] | 62.3
COCC(=O)N1[C@H](C)Cc2[nH]c3c(Cl)c(Cl)ccc3c2[C@@H]1C [Compound 109] | 15.1
COCC(=O)N1Cc2c([nH]c3c(Cl)c(Cl)ccc23)C2CCCCC21 (centres unmarked) [Compound 110] | 2230
COCC(=O)N1Cc2c([nH]c3c(Cl)c(Cl)ccc23)C[C@@H]1C [Compound 111] | 401
COCC(=O)N1Cc2c([nH]c3c(Cl)c(Cl)ccc23)C[C@H]1C [Compound 112] | 236
COCC(=O)N1Cc2c([nH]c3c(Cl)c(Cl)ccc23)CC1Cc1ccccc1 (centres unmarked) [Compound 113] | 4230
COCC(=O)N1Cc2c([nH]c3c(Cl)c(Cl)ccc23)C[C@@H]1C(C)C [Compound 114] | 718
COCC(=O)N1Cc2c([nH]c3c(Cl)c(Cl)ccc23)C[C@H]1C(F)(F)F [Compound 115] | 1380
COCC(=O)N1Cc2c([nH]c3c(Cl)c(Cl)cc(-c4ccn(C)n4)c23)C[C@H]1C [Compound 116] | 157
COCC(=O)N1Cc2c([nH]c3c(Cl)c(Cl)cc(-c4ccn(C)n4)c23)C[C@@H]1C [Compound 117] | 221
COCC(=O)N1Cc2c([nH]c3c(F)c(Cl)ccc23)C[C@@H]1C [Compound 118] | 316
CC[C@H]1Cc2[nH]c3c(Cl)c(Cl)ccc3c2CN1C(=O)COC [Compound 119] | 470
COCC(=O)N1Cc2c([nH]c3c(F)c(Cl)ccc23)C[C@H]1C [Compound 120] | 361
COCC(=O)N1Cc2c([nH]c3c(Br)c(Cl)ccc23)C[C@H]1C [Compound 121] | 7630
COCC(=O)N1Cc2c([nH]c3c(Cl)c(Br)ccc23)C[C@H]1C [Compound 122] | 205
COCC(=O)N1Cc2c([nH]c3c(Br)c(Cl)ccc23)C[C@@H]1C [Compound 123] | 133
COCC(=O)N1Cc2c([nH]c3c(Cl)c(F)ccc23)C[C@H]1C [Compound 124] | 1330
COCC(=O)N1Cc2c([nH]c3c(Cl)c(C)ccc23)C[C@@H]1C [Compound 125] | 756
COCC(=O)N1Cc2c([nH]c3c(F)c(Br)ccc23)C[C@H]1C [Compound 126] | 387
